Values of other authors, collected in patent US20240108043A1, “NONNUTRITIVE SWEETENER COMPOSITIONS, METHODS OF MANUFACTURE AND USES THEREOF” (priority 2022, published 2024).
Like-named read-outs stand apart in the source and are kept apart here.

What was measured:
[1] = for Sweetness intensity relative to sucrose: times the sweetness intensity of sucrose
[2] = in vivo
[3] = diabetic human subjects, daily 20 g for 14 days
[4] = tested on: TNF-Alpha and Interleukin 1-Beta; conditions: concentration of 1 mM
[5] = 500 mg, two years, mild hypertension patients
[6] = not given; remark: listed apart in the source

O=C(CO)[C@H](O)[C@H](O)[C@H](O)CO [allulose, D-ribo-2-hexulose]
Sweetness intensity relative to sucrose [1]: approximately 0.7 times

OC[C@@H](O)[C@@H](O)CO [erythritol, (2R,3S)-Butan-1,2,3,4-tetrol]
Excreted through urine with molecular structure unchanged [2]: Approximately 90% | Sweetness, as sweet as sucrose ([1]; percent of sucrose sweetness): 60-70% | Sweetness intensity relative to sucrose [1]: 0.6-0.7 times | Effect on blood glucose insulin [3]: no effect

O=C(CO)[C@@H](O)[C@H](O)[C@H](O)CO [fructose, D-Fructose]
Sweetness intensity relative to sucrose [1]: approximately 1.7 times

OC[C@@H](O)[C@@H](O[C@@H]1O[C@H](CO)[C@H](O)[C@H](O)[C@H]1O)[C@H](O)[C@@H](O)CO [lactitol]
Incidence of gastrointestinal distress compared to equal doses of sucrose (doses of 30-40 grams): significantly (p<0.01) increased

OC[C@@H](O)[C@@H](O)[C@H](O)[C@H](O)CO [mannitol]
Dose causing laxative affects (single bolus): greater than 20 grams

OC[C@@H](O)[C@@H](O)[C@H](O)[C@@H](O)CO [sorbitol]
Dose at which laxative affect is seen (men): 170 mg/kg | Dose at which laxative affect is seen (women): 240 mg/kg

C=C1C[C@@]23CC[C@H]4[C@@](C)(CCC[C@@]4(C)C(=O)O)[C@@H]2CC[C@]1(O)C3 [steviol]
Endotoxin release of TNF-Alpha and Interleukin 1-Beta [4]: significantly suppressed

C=C1C[C@@]23CC[C@H]4[C@@](C)(CCC[C@@]4(C)C(=O)O[C@@H]4O[C@H](CO)[C@@H](O)[C@H](O)[C@H]4O)[C@@H]2CC[C@]1(O[C@@H]1O[C@H](CO)[C@@H](O)[C@H](O)[C@H]1O[C@@H]1O[C@H](CO)[C@@H](O)[C@H](O)[C@H]1O)C3 [stevioside]
Diastolic and systolic blood pressure [5]: significantly reduced | Endotoxin release of TNF-Alpha and Interleukin 1-Beta [4]: significantly suppressed | Blood glucose ([6]; 200 mg, sixty healthy volunteers): effectively reduce blood glucose | Postprandial blood glucose levels ([6]; 1 gram vs 1 gram maize starch, type-2 diabetes patients, 30 and 240 minutes after a meal): reduced postprandial blood glucose levels
